The numbers were not newly measured in US20170100411A1, “CORTICOSTEROID FORMULATIONS FOR MAINTAINING CORTICOSTEROID SYNOVIAL FLUID CONCENTRATIONS” (priority 2015, published 2017), which cites them from elsewhere.

Series [1] addresses T1, glucocorticosteroid (GC) receptor (Homo sapiens, UniProt P04150).
T1 sequence (P04150 1-777): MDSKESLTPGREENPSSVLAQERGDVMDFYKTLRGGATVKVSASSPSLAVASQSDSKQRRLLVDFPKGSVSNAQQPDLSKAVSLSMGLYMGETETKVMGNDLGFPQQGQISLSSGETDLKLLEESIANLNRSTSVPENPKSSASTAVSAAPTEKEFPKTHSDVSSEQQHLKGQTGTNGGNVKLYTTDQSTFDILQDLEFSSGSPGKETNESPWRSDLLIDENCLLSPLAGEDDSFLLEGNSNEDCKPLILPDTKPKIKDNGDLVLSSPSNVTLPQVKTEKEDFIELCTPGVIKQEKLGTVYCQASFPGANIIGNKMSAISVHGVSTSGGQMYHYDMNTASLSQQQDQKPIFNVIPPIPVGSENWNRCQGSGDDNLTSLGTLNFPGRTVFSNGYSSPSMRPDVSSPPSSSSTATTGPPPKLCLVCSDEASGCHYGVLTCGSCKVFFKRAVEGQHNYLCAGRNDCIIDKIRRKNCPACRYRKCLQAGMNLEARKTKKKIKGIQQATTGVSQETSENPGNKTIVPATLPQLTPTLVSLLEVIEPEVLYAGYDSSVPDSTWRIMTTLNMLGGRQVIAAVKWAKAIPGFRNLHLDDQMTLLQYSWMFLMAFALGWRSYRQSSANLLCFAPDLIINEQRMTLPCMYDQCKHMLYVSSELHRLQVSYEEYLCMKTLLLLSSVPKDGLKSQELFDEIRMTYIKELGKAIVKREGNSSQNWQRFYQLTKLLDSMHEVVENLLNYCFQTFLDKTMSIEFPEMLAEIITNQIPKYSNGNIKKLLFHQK

The subject of a further series is HPA axis. The following applies: BID administration of 20 mg.

As to `CCC(=O)O[C@]1(C(=O)SCF)[C@H](C)C[C@H]2[C@@H]3C[C@H](F)C4=CC(=O)C=C[C@]4(C)[C@@]3(F)[C@@H](O)C[C@@]21C` [fluticasone propionate], the “potency at the GC receptor relative to other corticosteroids such as TCA” value in series [1] was “approximately 20 fold”. Methylprednisone: the “suppression of the HPA axis (published CCS %)” value in the series on HPA axis was 80-90%.
